Patent US12383539B2 (Cavion, Inc., priority 2018, dated 2025)
Where “and” joins values, the source holds several entries; their conditions need not be identical. Equal values may be shown once. Read-outs that look alike come from different tables or passages of the source.

What was measured:
[1] = type: in vivo; conditions: dog NOAEL 30 mg/kg, human 10 mg BID
[2] = type: in vivo; conditions: rat NOAEL 300 mg/kg, human 10 mg BID
[3] = Clinical PK crossover study of IR, MR1 and MR2 capsules, single 8 mg dose; type: in vivo, human
Text: Subjects will be screened for study eligibility within 28 days before administration of the first dose of study drug. Subjects who meet the study eligibility criteria will be admitted to the clinical research unit in the afternoon of the day before administration of the first dose of study drug (Period 1/Day −1).
Treatments A, B, and C will be separated by a minimum 7-day washout period. […] Administration of Treatment D may be separated from administration of Treatments A, B, and C by approximately 4 weeks to allow for analysis of the bioanalytical samples from the first 3 treatments.
A single dose, crossover clinical trial was conducted in 15 subjects ranging in age from 35-75 years.

[4] = following a single 8 mg dose of IR CX-8998
[5] = following a single 8 mg dose of MR1 CX-8998
[6] = following a single 8 mg dose of MR2 CX-8998

C=C(C)c1ccc(CC(=O)N[C@H](C)c2ccc(OCC(F)(F)F)cn2)cc1 [M01]
total safety margin, AUC24hr ([1]; Day 90, female): 5.6 fold
total safety margin, Css (animal Cmax / human estimated Css at steady state) ([1]; Day 90, female): 8 fold and 8.0 fold
total safety margin, AUC24hr ([1]; Day 90, male): 6.5 fold
total safety margin, Css (animal Cmax / human estimated Css at steady state) ([1]; Day 90, male): 10 fold
total safety margin, AUC24hr ([2]; Day 90, female): 13 fold
total safety margin, Css (animal Cmax / human estimated Css at steady state) ([2]; Day 90, female): 21 fold
total safety margin, AUC24hr ([2]; Day 90, male): 6.8 fold
total safety margin, Css (animal Cmax / human estimated Css at steady state) ([2]; Day 90, male): 13 fold
AUC72hr Ratio (metabolite to CX-8998) [3, 4]: 0.92
Cmax Ratio (metabolite to CX-8998) [3, 4]: 0.14
AUC72hr Ratio (metabolite to CX-8998) [3, 5]: 0.95
Cmax Ratio (metabolite to CX-8998) [3, 5]: 0.27
AUC72hr Ratio (metabolite to CX-8998) [3, 6]: 0.90
Cmax Ratio (metabolite to CX-8998) [3, 6]: 0.35
